Results published in paper PMC5000756, “Involvement of Three Esterase Genes from Panonychus citri (McGregor) in Fenpropathrin Resistance” (International Journal of Molecular Sciences, 2016).

Biological target: T1, PcE1 (Panonychus citri, UniProt D7NHW8)
T1 construct: ORF in pFastBac HTA, baculovirus-infected Sf9 cells; supernatant of cell homogenate
T1 sequence (D7NHW8 19-550): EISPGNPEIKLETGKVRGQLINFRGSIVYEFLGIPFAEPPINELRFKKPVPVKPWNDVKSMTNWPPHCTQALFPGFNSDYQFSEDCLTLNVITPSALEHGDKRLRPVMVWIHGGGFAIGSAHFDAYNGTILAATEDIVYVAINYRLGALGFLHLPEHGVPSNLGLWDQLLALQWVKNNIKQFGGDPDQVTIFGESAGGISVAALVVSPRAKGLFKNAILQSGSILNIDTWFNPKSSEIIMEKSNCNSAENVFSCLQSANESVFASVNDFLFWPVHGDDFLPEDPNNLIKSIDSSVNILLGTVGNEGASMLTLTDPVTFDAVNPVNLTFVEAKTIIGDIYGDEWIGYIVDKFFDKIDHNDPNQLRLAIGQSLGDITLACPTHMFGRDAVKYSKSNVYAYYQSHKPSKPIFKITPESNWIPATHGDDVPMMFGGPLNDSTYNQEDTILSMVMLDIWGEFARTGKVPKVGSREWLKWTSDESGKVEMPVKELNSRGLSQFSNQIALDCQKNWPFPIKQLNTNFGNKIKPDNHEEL
Assay: spectrophotometric, fast blue coupling, […] nm
Type: biochemical
Conditions: Sf9 cell lysate versus GFP control; pH 7.0, 30 °C

CC(=O)Oc1cccc2ccccc12 [α-naphthyl acetate]
spectrophotometric, fast blue coupling, 600 nm: All recombinant proteins showed significant catalytic activities when α-NA was used as the substrate
